US8889729B2, “Compositions for treating amyloid associated diseases” (Tel Aviv University Future Technology Development L.P., priority 2004, dated 2014)

Tests used:
Aβ 1-40 polypeptide [1] = target: T1, Aβ 1-40 polypeptide (Homo sapiens, UniProt P05067); experiment: Thioflavin T fluorescence assay of Aβ 1-40 fibrillization (Example 1); type: biochemical; conditions: 10 μM compound
T1 construct: Recombinant β-amyloid (Aβ 1-40, >98% pure) polypeptide; purchased rPeptide (Athens Ga., USA)
Description: Fibrillization of Aβ 1-40 polypeptide was monitored using a Thioflavin T (ThT) dye binding assay. […] Fluorescence measurements, made after addition of the ThT solution to each sample at 37° C., were carried out using a Jobin Yvon FluoroMax-3 spectrometer (excitation 450 nm, 2.5 nm slit; emission 480 nm, 5 nm slit, integration time of 1 second). Background was subtracted from each sample. The level of amyloid formation was detected using the above described Thioflavin T (ThT) dye binding assay.

Aβ 1-42 = target: T2, Aβ 1-42 (Homo sapiens, UniProt P05067); experiment: Thioflavin T fluorescence assay of Aβ 1-42 fibrillization (Example 2); type: biochemical
T2 construct: Aβ 1-40 and Aβ 1-42, >98% pure) were purchased from Bachem; purchased Bachem (Bubendorf, Switzerland); host or cells: chemical synthesis
T2 sequence (P05067 672-713 limits assumed): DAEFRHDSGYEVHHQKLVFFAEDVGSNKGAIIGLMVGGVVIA
Description: (§1) Aβ solutions: Synthetic lyophilized β-amyloid polypeptides (Aβ 1-40 and Aβ 1-42, >98% pure) were purchased from Bachem (Bubendorf, Switzerland). A 100 μM Aβ stock solution was prepared by dissolving Aβ1-40 or Aβ1-42 in dimethylsulfoxide (DMSO) and sonicating the resulting solution during 1 minute to avoid pre-aggregation. Aβ solutions were prepared by immediate dilution with 10 mM phosphate-buffered saline (100 mM NaCl, 0.5 mM EDTA, pH 7.4) to a final concentration of 10 μM (containing 10% (v/v) DMSO).
(§2) Indole derivatives stock solutions were prepared by dissolving an indole derivative in DMSO, so as to achieve a concentration of 20 mM and then diluting the solution with 10 mM PBS buffer (100 mM NaCl, 0.5 mM EDTA, pH 7.4) to a final concentration of 100 μM (containing 0.5% (v/v) DMSO).
(§3) Thioflavin T fluorescence assay: Fibrillization of A[…] 1-42 polypeptide was monitored using a Thioflavin T (ThT) dye binding assay. A 10 μM Aβ solution (either Aβ1-40 or Aβ1-42) was prepared as described above and was immediately mixed with the indole derivative stock solutions (100 μM), so as to achieve a final concentration of 5 μM for Aβ and various concentrations of the indole derivative. For each measurement, ThT was added to a 0.1 ml sample, to give a final concentration of 0.3 μM ThT and 0.4 μM Aβ. The samples were incubated at 37° C. Fluorescence measurements, made after addition of the ThT solution to each sample at 37° C., were carried out using a Jobin Yvon FluoroMax-3 spectrometer (excitation 450 nm, 2.5 nm slit; emission 480 nm, 5 nm slit, integration time of 1 second). Background was subtracted from each sample. Each experiment was repeated in quadruplicate.
Inhibition of amyloid formation: The level of amyloid formation was detected using the above described Thioflavin T (ThT) dye binding assay. Fluorescence (relative intensity, measured in units of percent) of the ThT bound Aβ 1-42 remaining following 24 hours at 37° C., in the absence, and in the presence of 50 μM indole or indole derivative, was measured. Each measurement was recorded immediately after the fluorescence intensity reached a maximum value. The results obtained with representative indole derivatives, each representing a mean of four independent measurements along with an associated error bar representing a standard error, are graphically presented in FIG. 4.
Concentration Dependence of Indole Derivatives inhibition activity: To examine the inhibition efficiency of the indole derivatives, the concentration dependence of inhibition of fibril formation was studied. The fibrillization of Aβ1-42, with and without an indole derivative was measured using the ThT fluorescence assay described above at a fixed incubation time of 24 hours.

Aβ 1-40 polypeptide [2] = target: T1, Aβ 1-40 polypeptide; experiment: Transmission electron microscopy of ThT assay samples (Example 1); conditions: 10 μM compound, sample at about 192 hours
Description: Transmission Electron Microscopy (TEM) Measurements: 10 μl samples from the ThT fluorescence assay were placed on 400-mesh copper grids (SPI supplies, West Chester Pa.) covered by carbon stabilized Formvar film. After 1 minute, excess fluid was removed, and the grids were negatively stained with 2% uranyl acetate in water for another two minutes. Microstructural features of the samples were viewed using a JEOL 1200EX electron microscope operating at 80 kV.
In order to obtain insight into the mechanism of inhibiting formation of β-amyloidpolypeptide type of amyloid fibrils, representative samples taken from the ThT fluorescence assay measurements described above after attainment of the plateau (at about 192 hours, FIG. 2), in the absence or presence of indole-3-carbinol, were viewed using electron microscopy.

Aβ1-40 [3] = target: T3, Aβ1-40 (Homo sapiens, UniProt P05067); experiment: TEM ultrastructural analysis of Aβ1-40 samples from kinetic studies; conditions: 50 μM compound, 14 days incubation
T3 construct: Synthetic lyophilized β-amyloid polypeptides (Aβ 1-40 and Aβ 1-42, >98% pure); purchased Bachem (Bubendorf, Switzerland); host or cells: chemical synthesis
T3 sequence (P05067 672-711 limits assumed): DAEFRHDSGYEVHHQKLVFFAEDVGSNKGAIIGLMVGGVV
Description: Transmission Electron microscopy (TEM): A 10 μl sample of the ThT fluorescence assay was placed on a 400 mesh copper grid covered by carbon-stabilized Formvar film (SPI Supplies, West Chester, Pa.). After 1.5 minutes, excess fluid was removed and the grids were negatively stained for 2 minutes with 10 μl of 2% uranyl acetate solution. Excess fluid was removed and the samples were viewed using a JEOL 1200EX electron microscope operating at 80 kV. Ultrastructural Analysis of amyloid fibril formation: The effect of the indole derivatives on the ultrastructural properties of the assembled Aβ was first evaluated by TEM measurements. Thus, TEM analysis was performed with samples of Aβ1-40 obtained from the kinetic studies described above after incubation for 14 days.

Aβ1-40 [4] = target: T3, Aβ1-40; experiment: Kinetics of Aβ1-40 fibrillogenesis inhibition, ThT fluorescence assay; type: biochemical
Description: as §1, §2, §3
Kinetics Studies of Aβ1-40 Fibrillogenesis Inhibition: Aβ1-40, which has a slower fibrillogenesis rate [see, Jarrett et al. (1993) Biochemistry 32, 4693-4697] was used in these studies, in order to obtain better temporal resolution, assuming that a slower rate would allow more significant inhibition and a better understanding of the effect. 3-Hydroxyindole (denoted as 3HI), 4-hydroxyindole (denoted as 4HI) and indole-3-carbinol (denoted herein as I3C) were each added at concentrations of 5 μM, 25 μM, and 50 μM to a solution containing 5 μM of Aβ1-40 (prepared as described above) and the kinetics of Aβ1-40 fibrillogenesis inhibition was measured using the ThT fluorescence assay.

[5] = 5 μM, 25 μM and 50 μM tested, 5 μM Aβ1-40

T1 sequence (P05067 672-711 limits assumed): as above

## OCc1c[nH]c2ccccc12 [indole-3-carbinol]
Aβ 1-40 polypeptide [1]; 5 μM Aβ 1-40
  level of fluorescence at the plateau compared to non-inhibited Aβ 1-40: about a third
Aβ 1-40 polypeptide [1]; 5 μM Aβ 1-40, 37° C., without compound about 200 hours
  time to attainment of fluorescence plateau: about 300 hours
Aβ 1-40 polypeptide [1]; 5 μM Aβ 1-40, remaining duration of assay
  levels of ThT fluorescence following about 100 hours: significantly lower levels of fluorescence
Aβ 1-40 polypeptide [1]; 5 μM Aβ 1-40, control lag-phase about 100 hours
  lag-time of fibrillization: significantly extended
Aβ 1-42; 50 μM compound, 5 μM Aβ 1-42, 24 hours at 37° C.
  inhibition of β-amyloid polypeptide fibril formation: significantly inhibited
Aβ 1-42; Aβ1-42, fixed incubation time of 24 hours
  concentration dependence of inhibition of fibril formation: only at high concentrations and showed no dose-dependency
Aβ 1-42; Aβ1-42 fibrillization, 24 hours, calculated by the curve equation, read-out: apparent IC50
  IC50: ~200 µM
Aβ 1-40 polypeptide [2]
  fibril morphology by electron microscopy: significantly shorter and less dense fiber type material
Aβ1-40 [3]
  fibril ultrastructure by TEM: smaller amounts of amyloid fibril aggregates
Aβ1-40 [4]; [5]
  effect on nucleation phase (lag phase) compared with control: no effect on the nucleation phase
  effect on slope of growth curve (polymerization phase): effect on the slope of the growth curve only at 50 μM
Aβ1-40 [4]; 50 μM compound, 5 μM Aβ1-40, endpoint of experiment, read-out: inhibition level at final equilibrium phase
  inhibition at 50 µM: ~50%
